Data on 26 compounds can be found in ChEMBL document CHEMBL5244219, “Recent developments of quinolone-based derivatives and their activities against Escherichia coli” (Eur J Med Chem, 2018).

In brackets after ≈: the same amount, converted by molar mass.

The test system of data set [1] is Escherichia coli. The data set is described as follows: Antibacterial activity against Escherichia coli assessed as bacterial growth inhibition incubated for 18 hrs by agar dilution method. The class given is functional.
Data set [2] concerns Escherichia coli. The data set is described as follows: Antibacterial activity against Escherichia coli ATCC 8739 assessed as bacterial growth inhibition. The class given is functional.
Data set [3] has as its system Escherichia coli. The data set is described as follows: Antibacterial activity against Escherichia coli ISF 432 assessed as bacterial growth inhibition. The format is functional.
Data set [4] deals with Escherichia coli. The data set is described as follows: Antibacterial activity against Escherichia coli assessed as bacterial growth inhibition by microdilution method. The format is functional. In general terms: Dilution methods test growth across graded concentrations, often in twofold steps.
Data set [5] relates to Escherichia coli. The data set is described as follows: Antibacterial activity against Escherichia coli KC-14 infected in po dosed mouse assessed as bacterial growth inhibition. The class given is functional. Particulars: Escherichia coli, KC-14, po, read-out: ED50.
The subject of data set [6] is Escherichia coli. The data set is described as follows: Antibacterial activity against Escherichia coli KC-14 assessed as bacterial growth inhibition. The class given is functional.
Data set [7] is described as follows: Cmax in mouse at 20 mg/kg, po. Particulars: in vivo. Details: dose 20 mg/kg, route po. The class given is ADME, organism-based.
A short description of data set [8]: Half life in mouse at 20 mg/kg, po. The format is ADME, organism-based. Particulars: in vivo.
Data set [9] is described as follows: AUC(0 to infinity) in mouse at 20 mg/kg, po. The format is ADME, organism-based. Particulars: in vivo. Further details: dose 20 mg/kg, route po.
For data set [10], the system named is Escherichia coli. The data set is described as follows: Antibacterial activity against Escherichia coli assessed as bacterial growth inhibition by broth microdilution method. The class given is functional.
In data set [11] the test system is Escherichia coli. The data set is described as follows: Antibacterial activity against Escherichia coli K-12 C600 assessed as bacterial growth inhibition. The class given is functional.
Data set [12] has as its system Escherichia coli. The data set is described as follows: Antibacterial activity against Escherichia coli ATCC 25922 infected in iv dosed mouse assessed as bacterial growth inhibition. The format is functional.
In data set [13] the test system is Escherichia coli. The data set is described as follows: Antibacterial activity against Escherichia coli TolC assessed as bacterial growth inhibition. The format is functional.
Data set [14] relates to Escherichia coli. The data set is described as follows: Antibacterial activity against Escherichia coli DH5alpha assessed as bacterial growth inhibition. The class given is functional.
Data set [15] has as its system Escherichia coli. The data set is described as follows: Antibacterial activity against Escherichia coli assessed as bacterial growth inhibition incubated for 16 to 24 hrs by absorbance analysis. The class given is functional. Particulars: time 16-24 hrs.
Data set [16] has as its system Escherichia coli. The data set is described as follows: Antibacterial activity against Escherichia coli NCTC 10418 assessed as bacterial growth inhibition incubated for 18 to 20 hrs by agar dilution method. The format is functional. Particulars: time 18-20 hrs. In general terms: In agar dilution the substance is mixed into plates at graded concentrations.
Data set [17] has as its system Escherichia coli. The data set is described as follows: Antibacterial activity against Escherichia coli ATCC 35218 assessed as bacterial growth inhibition incubated for 18 hrs by agar dilution method. The class given is functional.

Usually MIC stands for the lowest concentration that inhibits growth of the organism. Turning to `COc1c(N2CC3(CC3)[C@](C)(N)C2)c(F)cc2c(=O)c(C(=O)O)cn([C@@H]3C[C@@H]3F)c12`, the minimal inhibitory concentration (MIC) in the data set with Escherichia coli [1] is at most 0.006 µg/mL.
Turning to `Cc1c(N2CCc3ccccc3C2)c(N)cc2c(=O)c(C(=O)O)cn(C3CC3)c12`, the MIC with Escherichia coli [2] and in the data set with Escherichia coli [3] was 0.008 µg/mL (≈ 0.0205 µM) throughout.
On to `CC(=O)NC[C@H]1CN(c2ccc(N[C@@H]3CCN(c4nc5c(cc4F)c(=O)c(C(=O)O)cn5C4CC4)C3)c(F)c2)C(=O)O1`, for which, in the data set with Escherichia coli [4], the MIC was at least 0.5 µg/mL.
For `Cc1c(N2CC(C)OC(C)C2)c(N)cc2c(=O)c(C(=O)O)cn(C3CC3)c12` (stereo not given), the MIC in the data set on Escherichia coli [2] and with Escherichia coli [3] was 0.008 µg/mL (≈ 0.0215 µM) throughout.
One may read the ED50 as the dose that gives a 50% effect, or the effect in half of the subjects. By Cmax is commonly meant the maximum level reached in the sampled fluid or tissue. The term half-life denotes the time in which the quantity being followed falls by half. In general, AUC(0-inf) refers to total exposure, with the tail of the curve extrapolated. A lower AUC(0-inf) goes with low exposure. Take `CC1Sc2c(C(=O)O)c(=O)c3cc(F)c(N4CCN(C)CC4)cc3n21` (stereo not given): in the data set with Escherichia coli [5], the median effective dose (ED50) came to 0.97 mg/kg. In addition, the minimal inhibitory concentration (MIC) in the data set with Escherichia coli [6] was 0.025 µg/mL (≈ 0.0688 µM). Also, the peak concentration (Cmax) in data set [7] is 940 ng/mL. This compound showed a half-life in [8] of 2.8 h. The compound further gave a total exposure AUC(0-inf) in data set [9] of 2600 ng·h/mL.
Take `COc1c(N2C[C@@H](N)C3(CC3)C2)c(F)cc2c(=O)c(C(=O)O)cn([C@@H]3C[C@@H]3F)c12`: the MIC in the data set on Escherichia coli [1] was at most 0.006 µg/mL.
With `CCn1cc(C(=O)NNS(=O)(=O)c2ccc(C)cc2)c(=O)c2ccccc21`, the minimum inhibitory concentration (MIC) in the data set on Escherichia coli [10] was 0.0625 µg/mL (≈ 0.162 µM).
Same read-out and setting: the result for `CCn1cc(C(=O)NN)c(=O)c2cc(F)ccc21` reads 0.0625 µg/mL (≈ 0.251 µM); that for `CCn1cc(C(=O)NN)c(=O)c2cc(Cl)ccc21`, 0.0625 µg/mL (≈ 0.235 µM).
Consider `CN1CCN(c2cc3c(cc2F)c(=O)c(C(=O)O)c2n3CCS2)CC1`, for which the MIC in the data set on Escherichia coli [6] and in the data set on Escherichia coli [11] was 0.2 µg/mL (≈ 0.55 µM) in each case.
Turning to `CN1CCN(c2cc3c(cc2F)c(=O)c(C(=O)O)cn3-c2ccc(O)cc2)CC1`, the ED50 in the data set on Escherichia coli [12] was 0.75 mg/kg.
`CC(=O)NC[C@H]1CN(c2ccc(N3CCN(c4cc5c(cc4F)c(=O)c(C(=O)O)cn5C4CC4)CC3)c(F)c2)C(=O)O1`: the minimal inhibitory concentration (MIC) with Escherichia coli [4] was at least 0.5 µg/mL.
`CC(=O)NC[C@H]1CN(c2ccc(N3CCN(c4nc5c(cc4F)c(=O)c(C(=O)O)cn5C4CC4)CC3)c(F)c2)C(=O)O1`: in the data set with Escherichia coli [4], the MIC is at least 0.5 µg/mL.
The MIC50 is an inhibitory concentration at the 50% level, which refers to growth in some studies and to a panel of isolates in others. Take `CC(C)=CCC/C(C)=C/Cc1c(C)[nH]c2ccccc2c1=O`: the MIC50 was above 1.41 µg/mL in the data set with Escherichia coli [13] and above 64 µg/mL with Escherichia coli [14].
`CC(C)=CCc1c(C)[nH]c2ccccc2c1=O`: the MIC50 with Escherichia coli [13] was above 1.41 µg/mL; in the data set with Escherichia coli [14], above 64 µg/mL.
Turning to `Cc1ccc2[nH]c(C)c(CC(=O)O)c(=O)c2c1`, in the data set with Escherichia coli [15], the minimum inhibitory concentration (MIC) was 8.97 µg/mL (≈ 38.8 µM).
Regarding `CCn1cc(C(=O)O)c(=O)c2cc(F)c(N3CCN(CN4C(=O)C(=O)c5cc(Cl)ccc54)CC3)cc21`, the minimum inhibitory concentration (MIC) in the data set on Escherichia coli [16] is at most 0.018 µg/mL.
On the same count and under the same terms, the result for `CCn1cc(C(=O)O)c(=O)c2cc(F)c(N3CCN(CN4C(=O)C(=O)c5ccccc54)CC3)cc21` reads at most 0.018 µg/mL.
Turning to `Cc1[nH]c2cc3ccccc3cc2c(=O)c1CC(=O)O`, the minimal inhibitory concentration (MIC) in the data set on Escherichia coli [15] stood at 8.97 µg/mL (≈ 33.6 µM).
Consider `CC(=O)NC[C@H]1CN(c2ccc(N[C@@H]3CCN(c4cc5c(cc4F)c(=O)c(C(=O)O)cn5C4CC4)C3)c(F)c2)C(=O)O1`, for which, in the data set on Escherichia coli [4], the minimal inhibitory concentration (MIC) is at least 0.5 µg/mL.
For the compound `CC(=O)NC[C@H]1CN(c2ccc(NC3CN(c4nc5c(cc4F)c(=O)c(C(=O)O)cn5C4CC4)C3)c(F)c2)C(=O)O1`, the MIC in the data set with Escherichia coli [4] was at least 0.5 µg/mL.
For `CO/N=C1\CN(c2nc3c(cc2F)c(=O)c(C(=O)O)cn3[C@@H]2C[C@@H]2F)CC1CN` (stereo not given in full), the minimal inhibitory concentration (MIC) in the data set with Escherichia coli [17] was below 0.008 µg/mL.
Same read-out and setting: for `COc1cccc(CO/N=C2\CCN(c3c(F)cc4c(=O)c(C(=O)O)cn(C5CC5)c4c3OC)CC2N)c1` (stereo not given) the value was below 0.008 µg/mL.
As for `Cc1[nH]c2ccc(Br)cc2c(=O)c1CC(=O)O`, the MIC in the data set on Escherichia coli [15] was determined as 8.97 µg/mL (≈ 30.3 µM).
Same read-out and setting: for `Cc1[nH]c2c(C)cc([N+](=O)[O-])cc2c(=O)c1CC(=O)O` the value was 8.97 µg/mL (≈ 32.5 µM); for `Cc1[nH]c2ccc(Cl)cc2c(=O)c1CC(=O)O`, 8.97 µg/mL (≈ 35.6 µM).
